Experimental data: patent US6355799B1, “Substituted benzene compounds, process for their preparation, and herbicidal and defoliant compositions containing them” (ISK Americas Incorporated, priority 1997, dated 2002)

Columns and labels:
Format in all cases: in vivo
[1] = tested on: field corn (Zea mays L., var. Dekalb 535, CORN); assay: Pre-emerge test, crop safety; details: crop damage, pre-emerge, phytotoxicity rating 0-100 at 14 days after application
Procedure, shortened: (§1)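 Visual ratings on a 0-100 scale (0 no damage, 100 all plants dead) were taken at 14 days after treatment. Rates of 15-1000 g ai/ha in acetone, 187 l/ha, were sprayed onto soil one day after planting (pre-emerge) or onto 2-3 leaf plants with 0.25% v/v surfactant (post-emerge).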

[2] = tested on: upland rice (Oryza sp., var. Tebonnet, RICE); assay: Pre-emerge test, crop safety; details: crop damage, pre-emerge, phytotoxicity rating 0-100 at 14 days after application
Procedure, shortened: as §1

[3] = tested on: field corn (Zea mays L., var. Dekalb 535, CORN); assay: Post-emerge test, crop safety; details: post-emerge, crop damage rating 0-100 at 14 days after application
Procedure, shortened: (§2)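 Compounds in acetone were track-sprayed at 15-1000 g ai/ha (187 l/ha) on sandy loam pots: pre-emerge one day after seeding, post-emerge at 2-3 leaf stage with 0.25% v/v non-ionic surfactant. Phytotoxicity was rated 14 days later on a 0 (no damage) to 100 (complete death) scale.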

[4] = tested on: upland rice (Oryza sp., var. Tebonnet, RICE); assay: Post-emerge test, crop safety; details: post-emerge, crop damage rating 0-100 at 14 days after application
Procedure, shortened: as §2

[5] = tested on: redroot pigweed (Amaranthus retroflexus, AMARE); assay: Pre-emerge test, greenhouse herbicide activity screening; details: pre-emerge, phytotoxicity rating 0-100 at 14 days after application
Procedure, shortened: as §2

[6] = tested on: large crabgrass (Digitaria sanguinalis, DIGSA); assay: Post-emerge test, greenhouse herbicide activity screening; details: post-emerge, phytotoxicity rating 0-100 at 14 days after application
Procedure, shortened: (§3)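 Applied at 15–1000 g ai/ha from acetone in 187 l/ha spray volume. Post-emergence applications included 0.25% v/v non-ionic surfactant and reached plants sown 8–21 days before. Pre-emergence applications were incorporated by surface watering. Efficacy or crop damage was rated on a 0–100 scale after 14 days.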

[7] = tested on: green foxtail (Setaria viridis, SETVI); assay: as above; details: post-emerge, phytotoxicity rating 0-100 at 14 days after application
Procedure, shortened: as §3

[8] = tested on: velvetleaf (Abutilon theophrasti, ABUTH); assay: as above; details: post-emerge, phytotoxicity rating 0-100 at 14 days after application
Procedure, shortened: as §3

[9] = tested on: sicklepod (Cassia obtusifolia, CASOB); assay: as above; details: post-emerge, phytotoxicity rating 0-100 at 14 days after application
Procedure, shortened: as §3

[10] = tested on: redroot pigweed (Amaranthus retroflexus, AMARE); assay: as above; details: post-emerge, phytotoxicity rating 0-100 at 14 days after application
Procedure, shortened: as §3

[11] = tested on: johnsongrass (Sorghum halepense, SORHA); assay: as above; details: post-emerge, phytotoxicity rating 0-100 at 14 days after application
Procedure, shortened: as §3

[12] = tested on: barnyardgrass (Echinochloa crus-galli, ECHCG); assay: as above; details: post-emerge, phytotoxicity rating 0-100 at 14 days after application
Procedure, shortened: as §3

[13] = tested on: ivyleaf morningglory (Ipomoea hederacea, IPOHE); assay: as above; details: post-emerge, phytotoxicity rating 0-100 at 14 days after application
Procedure, shortened: as §3

[14] = tested on: lambsquarters (Chenopodium album, CHEAL); assay: as above; details: post-emerge, phytotoxicity rating 0-100 at 14 days after application
Procedure, shortened: as §3

[15] = tested on: large crabgrass (Digitaria sanguinalis, DIGSA); assay: Pre-emerge test, greenhouse herbicide activity screening; details: pre-emerge, phytotoxicity rating 0-100 at 14 days after application
Procedure, shortened: as §2

[16] = tested on: green foxtail (Setaria viridis, SETVI); assay: as above; details: pre-emerge, phytotoxicity rating 0-100 at 14 days after application
Procedure, shortened: as §2

[17] = tested on: velvetleaf (Abutilon theophrasti, ABUTH); assay: as above; details: pre-emerge, phytotoxicity rating 0-100 at 14 days after application
Procedure, shortened: as §2

[18] = tested on: sicklepod (Cassia obtusifolia, CASOB); assay: as above; details: pre-emerge, phytotoxicity rating 0-100 at 14 days after application
Procedure, shortened: as §2

[19] = tested on: johnsongrass (Sorghum halepense, SORHA); assay: as above; details: pre-emerge, phytotoxicity rating 0-100 at 14 days after application
Procedure, shortened: as §2

[20] = tested on: barnyardgrass (Echinochloa crus-galli, ECHCG); assay: as above; details: pre-emerge, phytotoxicity rating 0-100 at 14 days after application
Procedure, shortened: as §2

[21] = tested on: ivyleaf morningglory (Ipomoea hederacea, IPOHE); assay: as above; details: pre-emerge, phytotoxicity rating 0-100 at 14 days after application
Procedure, shortened: as §2

[22] = tested on: lambsquarters (Chenopodium album, CHEAL); assay: as above; details: pre-emerge, phytotoxicity rating 0-100 at 14 days after application
Procedure, shortened: as §2

Nc1c(OC2CCCC2)c(Cl)cc(F)c1N1C(=O)C2=C(CCCC2)C1=O [Compound 8-5, N-(2-amino-4-chloro-3-cyclopentyloxy-6-fluorophenyl)tetrahydrophthalimide]
90: Post-emerge Herbicidal Activity ABUTH ([8]; 250 g ai/ha) | Pre-emerge Herbicidal Activity SETVI ([16]; rate 250 g ai/ha)
100: Post-emerge Herbicidal Activity AMARE ([10]; 250 g ai/ha)
95: Pre-emerge Herbicidal Activity AMARE ([5]; rate 250 g ai/ha)
0: Pre-emerge Herbicidal Activity CORN ([1]; rate 63 g ai/ha) | Pre-emerge Herbicidal Activity CORN ([1]; rate 250 g ai/ha) | Pre-emerge Herbicidal Activity RICE ([2]; rate 63 g ai/ha) | Pre-emerge Herbicidal Activity RICE ([2]; rate 250 g ai/ha) | Post-emerge Herbicidal Activity CORN ([3]; 63 g ai/ha) | Post-emerge Herbicidal Activity CORN ([3]; 250 g ai/ha) | Post-emerge Herbicidal Activity DIGSA ([6]; 63 g ai/ha) | Post-emerge Herbicidal Activity DIGSA ([6]; 250 g ai/ha) | Post-emerge Herbicidal Activity SETVI ([7]; 63 g ai/ha) | Post-emerge Herbicidal Activity CASOB ([9]; 63 g ai/ha) | Post-emerge Herbicidal Activity SORHA ([11]; 63 g ai/ha) | Post-emerge Herbicidal Activity SORHA ([11]; 250 g ai/ha) | Post-emerge Herbicidal Activity ECHCG ([12]; 63 g ai/ha) | Post-emerge Herbicidal Activity ECHCG ([12]; 250 g ai/ha) | Post-emerge Herbicidal Activity IPOHE ([13]; 63 g ai/ha) | Pre-emerge Herbicidal Activity DIGSA ([15]; rate 63 g ai/ha) | Pre-emerge Herbicidal Activity DIGSA ([15]; rate 250 g ai/ha) | Pre-emerge Herbicidal Activity ABUTH ([17]; rate 63 g ai/ha) | Pre-emerge Herbicidal Activity CASOB ([18]; rate 63 g ai/ha) | Pre-emerge Herbicidal Activity SORHA ([19]; rate 63 g ai/ha) | Pre-emerge Herbicidal Activity ECHCG ([20]; rate 63 g ai/ha) | Pre-emerge Herbicidal Activity ECHCG ([20]; rate 250 g ai/ha) | Pre-emerge Herbicidal Activity IPOHE ([21]; rate 63 g ai/ha) | Pre-emerge Herbicidal Activity IPOHE ([21]; rate 250 g ai/ha) | Pre-emerge Herbicidal Activity CHEAL ([22]; rate 63 g ai/ha)
50: Post-emerge Herbicidal Activity RICE ([4]; 250 g ai/ha)
20: Post-emerge Herbicidal Activity SETVI ([7]; 250 g ai/ha) | Pre-emerge Herbicidal Activity SORHA ([19]; rate 250 g ai/ha)
40: Post-emerge Herbicidal Activity RICE ([4]; 63 g ai/ha) | Pre-emerge Herbicidal Activity AMARE ([5]; rate 63 g ai/ha) | Post-emerge Herbicidal Activity AMARE ([10]; 63 g ai/ha) | Post-emerge Herbicidal Activity IPOHE ([13]; 250 g ai/ha) | Pre-emerge Herbicidal Activity CASOB ([18]; rate 250 g ai/ha)
70: Post-emerge Herbicidal Activity ABUTH ([8]; 63 g ai/ha) | Post-emerge Herbicidal Activity CHEAL ([14]; 63 g ai/ha) | Post-emerge Herbicidal Activity CHEAL ([14]; 250 g ai/ha) | Pre-emerge Herbicidal Activity SETVI ([16]; rate 63 g ai/ha) | Pre-emerge Herbicidal Activity ABUTH ([17]; rate 250 g ai/ha)
80: Pre-emerge Herbicidal Activity CHEAL ([22]; rate 250 g ai/ha)
10: Post-emerge Herbicidal Activity CASOB ([9]; 250 g ai/ha)
